Some test systems named below: SK-OV-3; U-251; SN12C; IGROV-1; EKVX; CCRF-CEM; HT-29; A549; 786-0; OVCAR-4; HCT-15; SW-620; COLO 205; NCI-H226; HL-60; HCT-116; UACC-257; RPMI-8226.
Holding throughout (experiment): NCI anticancer screen, dose series, 48 h

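Results reflect a 48-hour exposure of cells in 96-well plates to compound at five concentrations. GI50: concentration for 50% inhibition of growth.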 The source made the active and inactive calls. No stated cut-off is given here; in the data, active = GI50 up to about 1.1 µM and inactive = higher.

On to `COc1cccc(/C=C(\NC(C)=O)c2nc3cc(Cl)ccc3[nH]2)c1`, for which the GI50 in the experiment on SK-OV-3, in the experiment on U-251, in the experiment on SN12C, in the experiment on IGROV-1, with EKVX and with CCRF-CEM was > 100 µM (inactive) throughout. The GI50 was > 100 µM (inactive) with HT-29; > 100 µM (inactive) with A549; > 100 µM (inactive) with 786-0; > 100 µM (inactive) in the experiment on OVCAR-4; over 100 µM in the experiment on HCT-15; > 100 µM (inactive) with SW-620. For the same compound, the GI50 in the experiment with COLO 205 was > 100 µM (inactive).
With `O=C(Nc1cccc(Cc2cccc(NC(=O)c3ccccc3)c2)c1)c1ccccc1`, the GI50 was 25.8 µM (inactive) in the experiment on SK-OV-3; 20.1 µM (inactive) in the experiment on U-251; 19.5 µM (inactive) with SN12C; 47.8 µM (inactive) in the experiment with IGROV-1; 23.3 µM (inactive) with EKVX; > 100 µM (inactive) in the experiment on CCRF-CEM. Besides, the GI50 in the experiment on NCI-H226 was 29 µM (inactive); with HT-29, > 100 µM (inactive); in the experiment with A549, 24.8 µM (inactive); in the experiment on 786-0, 26.9 µM (inactive); in the experiment with OVCAR-4, 6.79 µM (inactive); in the experiment with HCT-15, 89.3 µM. In addition, the GI50 in the experiment on SW-620 is > 100 µM (inactive); in the experiment on COLO 205 it was > 100 µM (inactive); with HL-60, > 100 µM (inactive); in the experiment with HCT-116, 50.6 µM (inactive); in the experiment on UACC-257, 29.8 µM (inactive).
Take `CSc1snc2sc3c(Cl)nnnc3c12`: the GI50 in the experiment with SK-OV-3 is 17.7 µM (inactive); with U-251, 15.1 µM (inactive); in the experiment on SN12C it was 15.3 µM (inactive); with IGROV-1, 18.3 µM (inactive); with EKVX, 19.6 µM (inactive); in the experiment on CCRF-CEM it was 2.12 µM (inactive). Moreover, the GI50 was 4.84 µM (inactive) in the experiment with HT-29; 17.9 µM (inactive) in the experiment with A549; 15.9 µM (inactive) in the experiment with 786-0; 15.6 µM (inactive) in the experiment on RPMI-8226; 14.8 µM (inactive) in the experiment on OVCAR-4; 8.15 µM in the experiment with HCT-15. The GI50 in the experiment on SW-620 is 3.8 µM (inactive); in the experiment on COLO 205, 10.5 µM (inactive); in the experiment on HCT-116, 16 µM (inactive); in the experiment on UACC-257, 12.8 µM (inactive).
As to `O=C(COc1ccc2c(=O)cc(-c3ccccc3)oc2c1)N1CCN(c2ccccc2)CC1`, the GI50 is > 100 µM (inactive) in the experiment on SK-OV-3; 38.5 µM (inactive) in the experiment on U-251; 41.4 µM (inactive) in the experiment on SN12C; > 100 µM (inactive) with IGROV-1; 28.4 µM (inactive) in the experiment with EKVX; 24.7 µM (inactive) in the experiment with CCRF-CEM. The GI50 was 72.4 µM (inactive) in the experiment with NCI-H226; 39.2 µM (inactive) in the experiment on A549; 41 µM (inactive) in the experiment on 786-0; 14.2 µM (inactive) in the experiment on RPMI-8226; 41.2 µM in the experiment on HCT-15; 83.8 µM (inactive) in the experiment on SW-620. In addition, the GI50 was 37 µM (inactive) in the experiment on COLO 205, 15.8 µM (inactive) with HL-60, 71.8 µM (inactive) in the experiment on HCT-116 and 43 µM (inactive) in the experiment on UACC-257.
On to `COc1ccc([Se]c2ccc(OC)cc2OC)c(OC)c1`, for which the GI50 in the experiment on SK-OV-3 was 34.3 µM (inactive); in the experiment on U-251 it was 21.6 µM (inactive); in the experiment with SN12C, 36.4 µM (inactive); with IGROV-1, 5.37 µM (inactive); with CCRF-CEM, 20.2 µM (inactive); in the experiment on NCI-H226, 20 µM (inactive). In addition, the GI50 with HT-29 is 4.58 µM (inactive); with A549, 10.8 µM (inactive); in the experiment with 786-0, 40.5 µM (inactive); with RPMI-8226 it was 20.7 µM (inactive); in the experiment with OVCAR-4, 21.9 µM (inactive); with SW-620, 4.66 µM (inactive). Moreover, the GI50 with COLO 205 was 11.4 µM (inactive); in the experiment on HL-60 it was 5.38 µM (inactive); with HCT-116, 12.1 µM (inactive); in the experiment on UACC-257 it was 61.2 µM (inactive).
Take `COC(=O)C1C2CC3C(OC(=O)C31)C2I` (configuration not stated): the GI50 with SK-OV-3, in the experiment on U-251, in the experiment with SN12C, with IGROV-1, in the experiment on EKVX and in the experiment with NCI-H226 was > 100 µM (inactive) in each case. Moreover, the GI50 is > 100 µM (inactive) with HT-29; > 100 µM (inactive) with A549; > 100 µM (inactive) with 786-0; > 100 µM (inactive) in the experiment with RPMI-8226; > 100 µM (inactive) with OVCAR-4; over 100 µM in the experiment on HCT-15. Moreover, the GI50 with SW-620, with COLO 205, with HL-60, in the experiment on HCT-116 and in the experiment on UACC-257 was > 100 µM (inactive) throughout.
As for `O=c1c2cccnc2ncn1CCCN1CCCC1`, the GI50 with SK-OV-3, with U-251, in the experiment with SN12C, in the experiment with IGROV-1, in the experiment with EKVX and with CCRF-CEM was > 100 µM (inactive) each time. In addition, the GI50 with NCI-H226 is 91 µM (inactive); in the experiment on HT-29, > 100 µM (inactive); with A549, > 100 µM (inactive); in the experiment with 786-0 it was > 100 µM (inactive); in the experiment on OVCAR-4, > 100 µM (inactive); with SW-620, > 100 µM (inactive). In addition, the GI50 is 97.3 µM (inactive) in the experiment with COLO 205 and > 100 µM (inactive) in the experiment with HCT-116.
For `CNCC(=O)Nc1ccc2c(c1)C(=O)c1ccc(NC(=O)CNC)cc1C2=O`, the GI50 in the experiment with SK-OV-3 is 1.62 µM (inactive); in the experiment on U-251, 2.7 µM (inactive); in the experiment with SN12C, 3.1 µM (inactive); in the experiment on IGROV-1, 16.6 µM (inactive); in the experiment on CCRF-CEM, 2.74 µM (inactive); in the experiment with NCI-H226, 7.57 µM (inactive). For the same compound, the GI50 in the experiment with HT-29 is 4.42 µM (inactive); in the experiment with A549, 11.2 µM (inactive); in the experiment with 786-0 it was 4.42 µM (inactive); with OVCAR-4, 1.91 µM (inactive); in the experiment on HCT-15, 7.62 µM; in the experiment on SW-620, 2.56 µM (inactive). Moreover, the GI50 with COLO 205 was 2.37 µM (inactive); in the experiment on HCT-116 it was 1.81 µM (inactive); with UACC-257, 4.36 µM (inactive).
With `C=CC1=C(C)c2cc3[nH]c(cc4nc(cc5[nH]c(cc1n2)c(C)c5CCC(=O)N(CC)CC)C(CCC(=O)N(CC)CC)=C4C)c(C)c3C=C`, the GI50 in the experiment with SK-OV-3, with U-251, in the experiment on SN12C, with IGROV-1, with EKVX and in the experiment with CCRF-CEM was > 100 µM (inactive) each time. Besides, the GI50 in the experiment with HT-29 is > 100 µM (inactive); in the experiment on A549, > 100 µM (inactive); in the experiment on 786-0 it was > 100 µM (inactive); in the experiment on OVCAR-4, > 100 µM (inactive); with HCT-15, over 100 µM; with SW-620, > 100 µM (inactive). The GI50 with HL-60, in the experiment on HCT-116 and with UACC-257 was > 100 µM (inactive) in each case.
For the compound `CSc1nc(NC2OC(COC(C)=O)C(OC(C)=O)C(OC(C)=O)C2OC(C)=O)c(/N=C/C=N/c2c(NC3OC(COC(C)=O)C(OC(C)=O)C(OC(C)=O)C3OC(C)=O)nc(SC)[nH]c2=O)c(=O)[nH]1` (configuration not stated), the GI50 with SK-OV-3, with U-251, in the experiment with SN12C, in the experiment with IGROV-1, in the experiment with EKVX and with HT-29 was > 100 µM (inactive) each time. Moreover, the GI50 is > 100 µM (inactive) in the experiment on A549; > 100 µM (inactive) with 786-0; > 100 µM (inactive) in the experiment with RPMI-8226; > 100 µM (inactive) with OVCAR-4; over 100 µM with HCT-15; > 100 µM (inactive) in the experiment on SW-620. The GI50 with COLO 205, with HL-60, in the experiment with HCT-116 and in the experiment on UACC-257 was > 100 µM (inactive) each time.
For the compound `Cc1ccc(-c2cc(-c3ccco3)c(C#N)c(=O)n2C2OC(OC(=O)c3ccccc3)C(OC(=O)c3ccccc3)C2OC(=O)c2ccccc2)cc1` (configuration not stated), the GI50 is > 100 µM (inactive) with SK-OV-3; 0.925 µM (active) in the experiment on U-251; > 100 µM (inactive) in the experiment with SN12C; 42.8 µM (inactive) in the experiment with IGROV-1; > 100 µM (inactive) with EKVX; > 100 µM (inactive) with CCRF-CEM. For the same compound, the GI50 is > 100 µM (inactive) in the experiment with HT-29; > 100 µM (inactive) with A549; 81.3 µM (inactive) in the experiment on 786-0; > 100 µM (inactive) in the experiment on RPMI-8226; over 100 µM in the experiment on HCT-15; > 100 µM (inactive) in the experiment on SW-620. For the same compound, the GI50 with COLO 205 is > 10 µM (inactive); in the experiment on HCT-116, 32.1 µM (inactive).
On to `O=C1OCC(C(=O)c2cccc(O)c2)C1=O` (configuration not stated), for which the GI50 in the experiment on SK-OV-3, in the experiment on U-251, with SN12C, in the experiment on IGROV-1, in the experiment on EKVX and in the experiment with NCI-H226 was > 100 µM (inactive) throughout. Besides, the GI50 was > 100 µM (inactive) in the experiment with HT-29; > 100 µM (inactive) with A549; > 100 µM (inactive) in the experiment with 786-0; > 100 µM (inactive) in the experiment with RPMI-8226; > 100 µM (inactive) in the experiment on OVCAR-4; over 100 µM in the experiment on HCT-15. For the same compound, the GI50 in the experiment with SW-620, in the experiment with COLO 205, in the experiment with HCT-116 and with UACC-257 was > 100 µM (inactive) each time.
With `O=S(=O)(O)C(O)/C=C/c1ccccc1` (configuration not stated), the GI50 is > 100 µM (inactive) in the experiment with SK-OV-3; > 100 µM (inactive) with U-251; > 100 µM (inactive) with SN12C; > 100 µM (inactive) in the experiment on IGROV-1; > 100 µM (inactive) with EKVX; 52.5 µM (inactive) in the experiment on CCRF-CEM. Besides, the GI50 with NCI-H226 is > 100 µM (inactive); with HT-29 it was > 100 µM (inactive); with A549, > 100 µM (inactive); with 786-0, > 100 µM (inactive); in the experiment with OVCAR-4 it was > 100 µM (inactive); in the experiment on HCT-15 it was over 100 µM. Further, the GI50 in the experiment with SW-620 was > 100 µM (inactive); with COLO 205, > 100 µM (inactive); in the experiment with HL-60 it was > 100 µM (inactive); in the experiment on HCT-116, 78.5 µM (inactive); in the experiment on UACC-257 it was > 100 µM (inactive).
